Data reported in US20070231374A1, “Composition Comprising Ether Lipid” (priority 2003, published 2007).

Tests used:
[1] = Phase diagram of GEO/water mixtures (polarising microscope, small angle x-ray diffraction); format: physicochemical; conditions: mixtures with water, FIG. 1
Description: Mixtures of glyceryl-1-monooleate ether (GEO) with water were prepared, shaken and allowed to equilibrate at a known temperature. The phase(s) of the resulting mixture were examined under the polarising microscope and by small angle x-ray diffraction.
At higher water content, both the L2 and the HII phases were stable in the presence of excess water.

[2] = stated as known; cited from earlier work

SMILES	water concentration at which reversed hexagonal (HII) phase forms [1]	stable phase in excess water [2]
CCCCCCCC/C=C\CCCCCCCCOCC(O)CO (stereo not drawn) [GEO, Glyceryl-1-monooleate ether]	> 15%	reversed hexagonal
CCCCCCCC/C=C\CCCCCCCC(=O)OCC(O)CO (stereo not drawn) [GMO, glyceryl monooleate]	–	reversed cubic
